This passage reports Zone results from patent publication US8178501B2, “Antibiotic combinations for providing total solution to the treatment of infections” (priority 2004, dated 2012).

Structures are written as SMILES. Structures can show the parent of a compound that is named as a salt.

Holding throughout (assay): Bacterial Susceptibility Test, zone size
Holding throughout (type): cell-based

One test deals with E. coli. The protocol:
(§1) The combination of amikacin and cefepime on different microorganisms was taken to analyze the efficiency of combination in comparison with the individual components of the drug. Different concentrations were selected mentioned to as highest, high, low and lowest in the data. Zone size was determined in mm.

For the next test, the system named is Streptococcus pneumoniae. How it is done: as §1
A further test has as its system Enterococcus faecalis. The protocol:
as §1

A further test has as its system Pseudomonas auriginosa. The protocol: as §1
The next test has as its system Staphylococcus aureus. The protocol:
as §1

The subject of a further test is Klebsiella pneumoniae. The protocol: as §1

On to `CO/N=C(\C(=O)N[C@@H]1C(=O)N2C(C(=O)O)=C(C[N+]3(C)CCCC3)CS[C@H]12)c1csc(N)n1.Cl.O.[Cl-]` [Cefepime, 1-[[(6R,7R)-7-[2-(2-amino-4-thiazolyl)-glyoxylamido]-2-carboxy-8-oxo-5-thia-1-azabicyclo[4.2.0]oct-2-en-3-yl]methyl]-1-methyl-pyrrolidinium chloride, 7^2-(Z)-(O-methyloxime), monohydrochloride, monohydrate], for which the Zone with E. coli (concentration High) amounted to 30.16 mm; with E. coli (concentration Highest), 32.24 mm; in the test on E. coli (concentration Low) it was 24.20 mm; in the test with E. coli (concentration Lowest), 16.42 mm; in the test with Streptococcus pneumoniae (concentration High), 28.10 mm; in the test on Streptococcus pneumoniae (concentration Highest), 30.32 mm. The Zone in the test with Streptococcus pneumoniae (concentration Low) is listed as 23.02 mm; in the test on Streptococcus pneumoniae (concentration Lowest) it was 19.54 mm; in the test with Enterococcus faecalis (concentration High) it was 25.52 mm; in the test on Enterococcus faecalis (concentration Highest), 28.98 mm; in the test with Enterococcus faecalis (concentration Low) it was 19.92 mm; in the test with Enterococcus faecalis (concentration Lowest), 12.65 mm. The Zone was 27.56 mm with Pseudomonas auriginosa (concentration High); 30.94 mm in the test on Pseudomonas auriginosa (concentration Highest); 18.81 mm in the test on Pseudomonas auriginosa (concentration Low); 12.08 mm with Pseudomonas auriginosa (concentration Lowest); 28.44 mm in the test with Staphylococcus aureus (concentration High); 31.06 mm in the test with Staphylococcus aureus (concentration Highest). Besides, the Zone is 21.18 mm in the test on Staphylococcus aureus (concentration Low); 16.24 mm with Staphylococcus aureus (concentration Lowest); 32.35 mm in the test on Klebsiella pneumoniae (concentration High); 36.02 mm in the test on Klebsiella pneumoniae (concentration Highest); 31.96 mm with Klebsiella pneumoniae (concentration Low); 30.83 mm in the test with Klebsiella pneumoniae (concentration Lowest).
As for `NCC[C@H](O)C(=O)N[C@@H]1C[C@H](N)[C@@H](O[C@H]2O[C@H](CN)[C@@H](O)[C@H](O)[C@H]2O)[C@H](O)[C@H]1O[C@H]1O[C@H](CO)[C@@H](O)[C@H](N)[C@H]1O` [Amikacin, D-Streptamine, O-3-amino-3-deoxy-α-d-glucopyranosyl)1→6)-O-[6-amino-6-deoxy-α-D-glucopyranosyl(1→4)]-N^1-(4-amino-2-hydroxy-1-oxobutyl)-2-deoxy-,(S)-,sulfate (1:2)(salt)], the Zone in the test on E. coli (concentration High) amounted to 29.02 mm; in the test on E. coli (concentration Highest), 30.90 mm; in the test with E. coli (concentration Low) it was 22.06 mm; in the test on E. coli (concentration Lowest) it was 15.02 mm; with Streptococcus pneumoniae (concentration High), 24.28 mm; in the test on Streptococcus pneumoniae (concentration Highest) it was 26.58 mm. The Zone turned out to be 18.34 mm in the test on Streptococcus pneumoniae (concentration Low); 12.32 mm in the test on Streptococcus pneumoniae (concentration Lowest); 23.24 mm in the test with Enterococcus faecalis (concentration High); 27.29 mm in the test with Enterococcus faecalis (concentration Highest); 17.97 mm in the test with Enterococcus faecalis (concentration Low); 08.05 mm in the test on Enterococcus faecalis (concentration Lowest). Moreover, the Zone with Pseudomonas auriginosa (concentration High) was determined as 21.81 mm; in the test with Pseudomonas auriginosa (concentration Highest) it was 26.93 mm; in the test with Pseudomonas auriginosa (concentration Low) it was 16.05 mm; in the test on Pseudomonas auriginosa (concentration Lowest), 09.81 mm; with Staphylococcus aureus (concentration High), 24.42 mm; with Staphylococcus aureus (concentration Highest), 28.92 mm. Also, the Zone in the test with Staphylococcus aureus (concentration Low) was found to be 18.79 mm; in the test with Staphylococcus aureus (concentration Lowest) it was 10.09 mm; in the test on Klebsiella pneumoniae (concentration High), 31.25 mm; in the test with Klebsiella pneumoniae (concentration Highest) it was 34.98 mm; in the test with Klebsiella pneumoniae (concentration Low), 31.02 mm; in the test on Klebsiella pneumoniae (concentration Lowest) it was 29.98 mm.
